Entries after “also recorded” stand apart in the source; their conditions may differ. One block for each molecule: values may come before it.
Experiments:
AML cell line Molm-14 = test: MTT assay, metabolic activity of Molm-14 cells; format: cell-based; conditions: 72 h; for effect on metabolic activity of Molm-14 cells (in words): concentrations up to 20 μM
Description: (§1) All studies with the HEL, Molm-14 and K562 cell lines mentioned (sourced from DSMZ: ACC-11, ACC-10 and ACC-777) were conducted under germ-free conditions under a sterile hood. Incubation was effected at 37° C. in an incubator at a CO2 saturation of 5%. For the passage of the suspension cells, the cells were transferred in a Falcon prefilled with PBS (phosphate buffered saline) and centrifuged at 1200 rpm for 5 min. All three cell lines were cultured in RPMI-1640 medium (Gibco, Thermo Fischer Scientific, Darmstadt, Germany) with 10% FCS and 1% penicillin streptomycin.
(§2) The viability and metabolic activity of the cells were measured by the MTT assay. Yellow, water-soluble MTT (3-([…])-2,5-diphenyltetrazolium bromide) is a tetrazolium salt which is reduced to dark blue formazan in living cells. Insoluble formazan is released by addition of isopropanol-HCl, and its intensity can be determined by photometry at a wavelength of 550 nm. Thus, the proportion of living cells is measured by comparison with a particular control sample. The cells were counted and washed with PBS, and 30 000 cells per well were sown in triplicates in a 96-well plate. For the inhibitor treatment, the stated final concentrations were used. For this purpose, 10 µl of the appropriate inhibitor dilution was introduced into the 96-well plates, and then 90 μl of cell suspension was pipetted in. The plates were incubated in an incubator for 72 h (37° C., 5% CO2). After the incubation, 10 μl of MTT solution (5 mg/ml) was applied to the wells with a multichannel pipette and thoroughly resuspended. This was followed by incubation for 4 h in the dark at room temperature. Subsequently, the cells were resuspended in 100 μl of isopropanol-HCl and lysed, and absorption at a wavelength of 550 nm was measured by photometry with a plate reader (Kayto, RT-2100C).
(§3) The erythroleukaemia cell line HEL (JAK2V617F-positive), the AML cell line Molm-14 and the chronic myeloid leukaemia (CML) cell line K562 (BCR-ABL-positive) were used for cell experiments.
(§4) Compounds MF1-R, MF1-S, JHS1-R and JHS1-S were dissolved in DMSO, and each was used in concentrations of 0.1 μM, 1 μM, 10 μM and 20 μM. Correspondingly, DMSO was included in each case as a control treatment, and the metabolic activity thereof was set to 100%. The HEL, Molm-14 and K562 cell lines were treated with the respective compounds in the different concentrations and, after 72 h in culture, the metabolic activity, which gives information about the growth of the cells, was determined by means of MTT [3-(4,5-dimethylthiazol-2-yl)-2,5-diphenyltetrazolium bromide] assay.

[1] = system: erythroleukaemia cell line HEL (JAK2V617F-positive); test: MTT assay, metabolic activity of HEL cells; format: cell-based; conditions: 72 h; for effect on metabolic activity of HEL cells (in words): concentrations up to 20 μM
Description: as §1, §2, §3, §4

[2] = system: haematopoietic cell lines, erythroleukaemia and AML cell lines; test: Inhibitory activity in haematopoietic cell lines (summary statements); format: cell-based; conditions: for activity relative to PFI-1 in haematopoietic cell lines: racemic mixtures of MF1, MF2, achiral MF3
Description: as §1, §2

BRD2 = test: Thermal shift assay (BromoMELT assay), BRD2; format: binding; conditions: 10 μM, duplicates, versus DMSO control
Description: (§5) The experiment was conducted in duplicates at a concentration of 10 μM.

[3] = system: PBMC or CD34+ cells from healthy donors; test: CFU assay, healthy controls; format: cell-based, human
Description: With the aid of the CFU assay, it is possible to determine the colony-forming capacity of individual cells in a semisolid methylcellulose medium (MethoCult H4434, StemCell Technologies, Cologne, Germany). The number of colonies was determined after 7-11 days.
CD34+ cells (G-CSF mobilized from stem cell donors) from healthy donors: 2×10^4 cells/ml; PBMCs from the healthy subjects: 4×10^5 cells/ml.
For this purpose, mononuclear cells (PBMC: mononuclear cells from peripheral blood) or CD34-positive stem cells (CD34+ cells) were isolated from the blood of four healthy controls and three AML or MPN patients and introduced into semisolid medium, to each of which 1 μM or 5 μM of MFS-2 or PFI-1 have been added. Individual cells in the CFU assay form cell colonies in culture after 12 days, unless the formation thereof is prevented by inhibitors.

[4] = system: proteins from the BET family; test: Thermal shift assay (BromoMELT assay), BET family; format: binding; conditions: 10 μM, duplicates, versus DMSO control; apart from BRDT-2
Description: as §5

SMILES: CN1Cc2cc(N=S(C)(=Nc3ccccc3)c3ccccc3)ccc2NC1=O (racemic) [JHS1, rac-N-(3-methyl-2-oxo-1,2,3,4-tetrahydroquinazolin-6-yl)-N-phenyl-S-methyl-S-phenylsulfonediimide]
- effect on metabolic activity of Molm-14 cells (in words) (AML cell line Molm-14): reduced the metabolic activity of HEL and Molm-14 cells at concentrations of 10 and 20 μM; also recorded: achieved inhibition of the metabolic activity of HEL and Molm-14 cells at concentrations of 10 and 20 μM
- effect on metabolic activity of HEL cells (in words) [1]: reduced the metabolic activity of HEL and Molm-14 cells at concentrations of 10 and 20 μM; also recorded: achieved inhibition of the metabolic activity of HEL and Molm-14 cells at concentrations of 10 and 20 μM

SMILES: CN1Cc2cc(N=S(C)(=N)c3ccccc3)ccc2NC1=O (racemic) [JHS2, rac-N-(3-methyl-2-oxo-1,2,3,4-tetrahydroquinazolin-6-yl)-N′—H—S-methyl-S-phenylsulfonediimide]
- inhibitory activity in haematopoietic / leukaemia cell lines (in words) [2]: minor inhibitory activity
- effect on metabolic activity of Molm-14 cells (in words) (AML cell line Molm-14): inactive
- effect on metabolic activity of HEL cells (in words) [1]: inactive

SMILES: CN=S(C)(=Nc1ccc2c(c1)CN(C)C(=O)N2)c1ccccc1 (racemic) [JHS3, rac-N-(3-methyl-2-oxo-1,2,3,4-tetrahydroquinazolin-6-yl)-N-methyl-S-methyl-S-phenylsulfonediimide]
- inhibitory activity in haematopoietic / leukaemia cell lines (in words) [2]: minor inhibitory activity
- effect on metabolic activity of Molm-14 cells (in words) (AML cell line Molm-14): inactive
- effect on metabolic activity of HEL cells (in words) [1]: inactive

SMILES: COc1ccccc1S(C)(=O)=Nc1ccc2c(c1)CN(C)C(=O)N2 (racemic) [MF1, rac-N-(3-methyl-2-oxo-1,2,3,4-tetrahydroquinazolin-6-yl)-S-(2-methoxyphenyl)-S-methylsulfoximine]
- inhibitory activity in haematopoietic / leukaemia cell lines (in words) [2]: marked inhibitory activity; also recorded: showed inhibitory activity
- activity relative to PFI-1 in haematopoietic cell lines [2]: at a comparable level to PFI-1

SMILES: CN1Cc2cc(N=S(C)(=O)c3ccccc3)ccc2NC1=O (racemic) [MF2, rac-N-(3-methyl-2-oxo-1,2,3,4-tetrahydroquinazolin-6-yl)-S-methyl-S-phenylsulfoximine]
- inhibitory activity in haematopoietic / leukaemia cell lines (in words) [2]: marked inhibitory activity
- activity relative to PFI-1 in haematopoietic cell lines [2]: at a comparable level to PFI-1
- effect on metabolic activity of Molm-14 cells (in words) (AML cell line Molm-14): reduced the metabolic activity of HEL and Molm-14 cells at concentrations of 10 and 20 μM
- effect on metabolic activity of HEL cells (in words) [1]: reduced the metabolic activity of HEL and Molm-14 cells at concentrations of 10 and 20 μM

SMILES: CN1Cc2cc(N=[S@@](C)(=Nc3ccccc3)c3ccccc3)ccc2NC1=O [JHS1-R, (R)—N-(3-methyl-2-oxo-1,2,3,4-tetrahydroquinazolin-6-yl)-N′-phenyl-S-methyl-S-phenylsulfonediimide]
- inhibitory activity in haematopoietic / leukaemia cell lines (in words) [2]: almost the same level of inhibitory action

SMILES: CN1Cc2cc(N=[S@](C)(=Nc3ccccc3)c3ccccc3)ccc2NC1=O [JHS1-S, (S)—N-(3-methyl-2-oxo-1,2,3,4-tetrahydroquinazolin-6-yl)-N-phenyl-S-methyl-S-phenylsulfonediimide]
- effect on metabolic activity of Molm-14 cells (in words) (AML cell line Molm-14): comparable effect on the metabolic activity
- effect on metabolic activity of HEL cells (in words) [1]: comparable effect on the metabolic activity

SMILES: COc1ccccc1[S@@](C)(=O)=Nc1ccc2c(c1)CN(C)C(=O)N2 [MF1-R, (R)—N-(3-methyl-2-oxo-1,2,3,4-tetrahydroquinazolin-6-yl)-S-(2-methoxyphenyl)-S-methylsulfoximine]
- inhibitory activity in haematopoietic / leukaemia cell lines (in words) [2]: minor inhibitory effect
- effect on metabolic activity of Molm-14 cells (in words) (AML cell line Molm-14): virtually inactive
- effect on metabolic activity of HEL cells (in words) [1]: virtually inactive

SMILES: COc1ccccc1[S@](C)(=O)=Nc1ccc2c(c1)CN(C)C(=O)N2 [MF1-S, (S)—N-(3-methyl-2-oxo-1,2,3,4-tetrahydroquinazolin-6-yl)-S-(2-methoxyphenyl)-S-methylsulfoximine]
- effect on metabolic activity of Molm-14 cells (in words) (AML cell line Molm-14): comparable effect on the metabolic activity of HEL and Molm-14 cells to PFI-1
- effect on metabolic activity of HEL cells (in words) [1]: comparable effect on the metabolic activity of HEL and Molm-14 cells to PFI-1

SMILES: CN1Cc2cc(N=[S@](C)(=O)c3ccccc3)ccc2NC1=O [MF2-R, (R)—N-(3-methyl-2-oxo-1,2,3,4-tetrahydroquinazolin-6-yl)-S-Methyl-S-Phenylsulfoximine]
- inhibitory activity in haematopoietic / leukaemia cell lines (in words) [2]: showed inhibition of the cell proliferation of leukaemia cell lines
- effect on metabolic activity of Molm-14 cells (in words) (AML cell line Molm-14): lost inhibitory activity compared to MF2
- effect on metabolic activity of HEL cells (in words) [1]: lost inhibitory activity compared to MF2

SMILES: CN1Cc2cc(N=S(=O)(c3ccccc3)c3ccccc3)ccc2NC1=O [MF3, N-(3-methyl-2-oxo-1,2,3,4-tetrahydroquinazolin-6-yl)-S,S-diphenylsulfoximine]
- inhibitory activity in haematopoietic / leukaemia cell lines (in words) [2]: marked inhibitory activity
- activity relative to PFI-1 in haematopoietic cell lines [2]: at a comparable level to PFI-1

- binding of BRD2 (ΔTm, in words) (BRD2): stronger binding of BRD2
SMILES: COc1ccccc1S(=O)(=O)Nc1ccc2c(c1)CN(C)C(=O)N2 [PFI-1, reference compound]
- metabolic activity of Molm-14 cells (AML cell line Molm-14; 1 μM, DMSO control set to 100%): 80.43%±1.324
- colony count, healthy CD34+ controls 3 and 4 ([3]; 1 μM): reduced the colony count of the controls to a lesser degree
- colony count, healthy controls 1 (PBMC) and 2 (CD34+ cells) ([3]; 5 μM): likewise reduced the amount of colonies
- binding of BET family proteins (ΔTm, in words) [4]: specifically bind proteins of the BET family
- metabolic activity of HEL cells ([1]; 1 μM, DMSO control set to 100%): 72.95%±12.7
